Where “and” joins values, the source holds several entries; their conditions need not be identical. Equal entries are not always repeated. Inconclusive results and toxic doses are left out. Cut-off read from the data, not from the text of the source: active = T/C of 150% or more; inactive = T/C below 125%.
System: L1210 leukemia ip in BDF1 mice, survival T/C
Experiment: NCI In Vivo Anticancer Drug Screen. Data for tumor model L1210 Leukemia (intraperitoneal) in B6D2F1 (BDF1) mice
Conditions: endpoint: mean survival time, higher = longer survival
Method in brief: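 Read-out is survival time, reported as the treated-group measurement over the vehicle-control measurement.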

[1] = dose: 100.0 mg/kg/injection, schedule: Q04DX003 (ip), vehicle: saline with Tween-80
[2] = dose: 200.0 mg/kg/injection, schedule: Q04DX003 (ip), vehicle: saline with Tween-80
[3] = dose: 400.0 mg/kg/injection, schedule: Q04DX003 (ip), vehicle: saline with Tween-80
[4] = dose: 100.0 mg/kg/injection, schedule: Q04DX002 (ip), vehicle: Klucel (hydroxypropylcellulose) (HPC)
[5] = dose: 400.0 mg/kg/injection, schedule: Q04DX002 (ip), vehicle: Klucel (hydroxypropylcellulose) (HPC)
[6] = dose: 100.0 mg/kg/injection, schedule: Q01DX009 (ip), vehicle: saline with Tween-80
[7] = dose: 200.0 mg/kg/injection, schedule: Q01DX009 (ip), vehicle: saline with Tween-80
[8] = dose: 400.0 mg/kg/injection, schedule: Q01DX009 (ip), vehicle: saline with Tween-80
[9] = dose: 100.0 mg/kg/injection, schedule: Q01DX001 (ip), vehicle: saline
[10] = dose: 200.0 mg/kg/injection, schedule: Q01DX001 (ip), vehicle: saline
[11] = dose: 400.0 mg/kg/injection, schedule: Q01DX001 (ip), vehicle: saline
[12] = dose: 25.0 mg/kg/injection, schedule: Q01DX009 (ip), vehicle: saline with Tween-80
[13] = dose: 50.0 mg/kg/injection, schedule: Q01DX009 (ip), vehicle: saline with Tween-80
[14] = dose: 75.0 mg/kg/injection, schedule: Q01DX001 (ip), vehicle: saline

Measured: T/C

CCCCC(CC)CN(CC(CC)CCCC)c1nc(Cl)nc(N(CC(CC)CCCC)CC(CC)CCCC)n1 (stereo not drawn)
inactive: dose: 25.6 mg/kg/injection, schedule: Q04DX002 (ip), vehicle: saline with Tween-80 91 % of control | dose: 64.0 mg/kg/injection, schedule: Q04DX002 (ip), vehicle: saline with Tween-80 97 % of control | [1] 92 % of control | dose: 160.0 mg/kg/injection, schedule: Q04DX002 (ip), vehicle: saline with Tween-80 91 % of control | [2] 94 % of control | dose: 400.0 mg/kg/injection, schedule: Q04DX002 (ip), vehicle: saline with Tween-80 91 % of control | [3] 92 % of control

CC1CCCC(C)(C)C1NCc1cc(Br)cc(Br)c1O (stereo not drawn)
inactive: dose: 100.0 mg/kg/injection, schedule: Q01DX009 (ip), vehicle: Klucel (hydroxypropylcellulose) (HPC) 107 % of control | dose: 400.0 mg/kg/injection, schedule: Q01DX009 (ip), vehicle: Klucel (hydroxypropylcellulose) (HPC) 88 % of control

CC1=CC(C)(C)NC(=S)N1c1ccc(N=Nc2ccccc2)cc1
inactive: dose: 334.0 mg/kg/injection, schedule: Q01DX Z (ip), vehicle: methylcellulose (MC) 91 % of control | dose: 500.0 mg/kg/injection, schedule: Q01DX Z (ip), vehicle: methylcellulose (MC) 92 % of control

C#CCC1CCCC/C1=N\Nc1ccc([N+](=O)[O-])cc1[N+](=O)[O-] (stereo not drawn)
inactive: [4] 96 % of control | dose: 200.0 mg/kg/injection, schedule: Q04DX002 (ip), vehicle: Klucel (hydroxypropylcellulose) (HPC) 103 % of control | [5] 92 % of control

O=C(Sc1ccccc1-n1cccc1)c1ccccc1
inactive: [6] 109 % of control | [7] 100 % of control | [8] 102 % of control

C[C@@H]1C[C@@]2(C)C(=CC1=O)CC[C@@H]1C2=CC[C@@]2(C)[C@H]1CC[C@]2(C)O
inactive: dose: 100.0 mg/kg/injection, schedule: Q01DX009 (ip), vehicle: saline 100 % of control | dose: 100.0 mg/kg/injection, schedule: Q04DX003 (ip), vehicle: alcohol 103 % of control | dose: 200.0 mg/kg/injection, schedule: Q01DX009 (ip), vehicle: saline 100 % of control | dose: 200.0 mg/kg/injection, schedule: Q04DX003 (ip), vehicle: alcohol 103 % of control | dose: 400.0 mg/kg/injection, schedule: Q01DX009 (ip), vehicle: saline 100 % of control | dose: 400.0 mg/kg/injection, schedule: Q04DX003 (ip), vehicle: alcohol 97 % of control

C1COC(CNCC2CCCO2)C1 (stereo not drawn)
inactive: dose: 50.0 mg/kg/injection, schedule: Q01DX001 (ip), vehicle: saline 109 % of control | [9] 101 % of control | [10] 103 % of control

CC(=O)OCC1OC(n2cnc3c(Cl)nc(N)nc32)C(OC(C)=O)C1OC(C)=O (stereo not drawn)
inactive: dose: 100.0 mg/kg/injection, schedule: Q01DX005 (ip), vehicle: saline 103 % of control | dose: 200.0 mg/kg/injection, schedule: Q01DX005 (ip), vehicle: saline 101 % of control

Oc1cc(Br)c(O)c(Br)c1
inactive: dose: 25.0 mg/kg/injection, schedule: Q04DX002 (ip), vehicle: Klucel (hydroxypropylcellulose) (HPC) 109 % of control | dose: 50.0 mg/kg/injection, schedule: Q04DX002 (ip), vehicle: Klucel (hydroxypropylcellulose) (HPC) 102 % of control | [4] 97 % of control | [5] 90 % of control

CCC1=CC(=O)C(C)=C(C)C1=O
inactive: dose: 25.0 mg/kg/injection, schedule: Q04DX003 (ip), vehicle: other 100 % of control | dose: 50.0 mg/kg/injection, schedule: Q04DX003 (ip), vehicle: other 102 % of control | dose: 100.0 mg/kg/injection, schedule: Q04DX003 (ip), vehicle: other 97 % of control and 102 % of control

CN(C)Cc1c[nH]c2ccsc12
inactive: [1] 98 % of control | [2] 87 % of control

O=S1(=O)c2ccccc2C2CC=CCC21 (stereo not drawn)
inactive: dose: 50.0 mg/kg/injection, schedule: Q01DX001 (ip), vehicle: carboxymethylcellulose (CMC) 98 % of control | dose: 100.0 mg/kg/injection, schedule: Q01DX001 (ip), vehicle: carboxymethylcellulose (CMC) 98 % of control | dose: 200.0 mg/kg/injection, schedule: Q01DX001 (ip), vehicle: carboxymethylcellulose (CMC) 98 % of control | dose: 400.0 mg/kg/injection, schedule: Q01DX001 (ip), vehicle: carboxymethylcellulose (CMC) 93 % of control

Cc1ccc(NC(=O)C2C3C=CC(C3)C2C(=O)Nc2ccc(C)cc2)cc1 (stereo not drawn)
inactive: [1] 96 % of control | [2] 96 % of control | [3] 91 % of control

CCC1([N+](=O)[O-])COP(=O)(OC(=O)c2ccco2)OC1 (stereo not drawn)
inactive: [9] 97 % of control | [10] 96 % of control | [11] 96 % of control

CCOC(=O)CCC(NC(=O)CCCCSc1ncnc2nc[nH]c12)C(=O)OCC (stereo not drawn)
inactive: [12] 97 % of control | dose: 25.0 mg/kg/injection, schedule: Q01DX009 (oral), vehicle: saline with Tween-80 90 % of control | [13] 101 % of control | dose: 50.0 mg/kg/injection, schedule: Q01DX009 (oral), vehicle: saline with Tween-80 86 % of control | [6] 106 % of control | dose: 100.0 mg/kg/injection, schedule: Q01DX009 (oral), vehicle: saline with Tween-80 100 % of control | [7] 111 % of control | dose: 200.0 mg/kg/injection, schedule: Q01DX009 (oral), vehicle: saline with Tween-80 88 % of control | [8] 107 % of control | dose: 400.0 mg/kg/injection, schedule: Q01DX009 (oral), vehicle: saline with Tween-80 95 % of control

N#CN(Cc1ccc(Cl)cc1Cl)C(=O)OCOc1ccc(Cl)cc1
inactive: [6] 91 % of control | [7] 96 % of control | [8] 107 % of control

CCOP(=O)(OCC)N1CC1c1ccccc1 (stereo not drawn)
inactive: dose: 75.0 mg/kg/injection, schedule: Q01DX001 (ip), vehicle: carboxymethylcellulose (CMC) 114 % of control

CCCCc1nc2c(O)ccc(O)c2nc1C
inactive: dose: 75.0 mg/kg/injection, schedule: Q01DX001 (ip), vehicle: other 93 % of control | dose: 75.0 mg/kg/injection, schedule: Q04DX003 (ip), vehicle: other 101 % of control | dose: 150.0 mg/kg/injection, schedule: Q01DX001 (ip), vehicle: other 88 % of control | dose: 150.0 mg/kg/injection, schedule: Q04DX003 (ip), vehicle: other 104 % of control | dose: 300.0 mg/kg/injection, schedule: Q01DX001 (ip), vehicle: other 87 % of control

c1ccc([P+]2(c3ccccc3)CC[P+](c3ccccc3)(c3ccccc3)CC2)cc1
inactive: dose: 9.5 mg/kg/injection, schedule: Q01DX001 (ip), vehicle: saline 103 % of control | dose: 19.0 mg/kg/injection, schedule: Q01DX001 (ip), vehicle: saline 101 % of control | dose: 38.0 mg/kg/injection, schedule: Q01DX001 (ip), vehicle: saline 97 % of control | [14] 100 % of control

CCCCCCC(CCCCCC)CC1CCCC1
inactive: dose: 50.0 mg/kg/injection, schedule: Q04DX002 (sc), vehicle: olive oil, sesame oil, peanut oil 103 % of control | dose: 100.0 mg/kg/injection, schedule: Q04DX002 (sc), vehicle: olive oil, sesame oil, peanut oil 97 % of control | dose: 200.0 mg/kg/injection, schedule: Q04DX002 (sc), vehicle: olive oil, sesame oil, peanut oil 97 % of control

CC(c1ccccc1)n1cnc2c(N(CCO)CCO)ncnc21 (stereo not drawn)
inactive: [9] 117 % of control | [10] 104 % of control | [11] 101 % of control

C=C(C)C1C=CC(O)=C2C(=O)CCC(C)C21C (stereo not drawn)
inactive: dose: 25.0 mg/kg/injection, schedule: Q04DX003 (ip), vehicle: saline 100 % of control | dose: 50.0 mg/kg/injection, schedule: Q04DX003 (ip), vehicle: saline 100 % of control | dose: 100.0 mg/kg/injection, schedule: Q04DX003 (ip), vehicle: saline 100 % of control

C=CCC1(CCCCC)C(=O)NC(=S)NC1=O
inactive: [14] 100 % of control | dose: 150.0 mg/kg/injection, schedule: Q01DX001 (ip), vehicle: saline 100 % of control

Clc1ccc(-c2ncc3cnccn23)cc1Cl
inactive: [12] 92 % of control | dose: 25.0 mg/kg/injection, schedule: Q04DX003 (ip), vehicle: saline with Tween-80 96 % of control | [13] 96 % of control | dose: 50.0 mg/kg/injection, schedule: Q04DX003 (ip), vehicle: saline with Tween-80 103 % of control | [1] 94 % of control and 96 % of control

CC(C)c1cccc2ccccc12
inactive: dose: 100.0 mg/kg/injection, schedule: Q04DX003 (ip), vehicle: acetone 95 % of control | dose: 200.0 mg/kg/injection, schedule: Q04DX003 (ip), vehicle: acetone 88 % of control

Reference: PubChem BioAssay AID248 (DTP/NCI, 2004)
